Test [1] deals with Adenosine receptors; A1 & A2b (Homo sapiens) (UniProt P30542+P29275). As to the kind of experiment: Selectivity of adenosine A1 receptor over adenosine A2B receptor. In kind it is protein assay.
The target in test [2] is Adenosine receptors; A2b & A3 (Homo sapiens) (UniProt P29275+P0DMS8). Put plainly: Selectivity of adenosine A3 receptor over adenosine A2B receptor. Format: protein assay.
The target in test [3] is Adenosine A2 receptor (Homo sapiens) (UniProt P29275+P29274). Put plainly: Selectivity of adenosine A2A receptor over adenosine A2B receptor. Format: protein assay.
The next test deals with T1, Adenosine receptor A3 (Homo sapiens, UniProt P0DMS8).
T1 sequence (P0DMS8 whole entry): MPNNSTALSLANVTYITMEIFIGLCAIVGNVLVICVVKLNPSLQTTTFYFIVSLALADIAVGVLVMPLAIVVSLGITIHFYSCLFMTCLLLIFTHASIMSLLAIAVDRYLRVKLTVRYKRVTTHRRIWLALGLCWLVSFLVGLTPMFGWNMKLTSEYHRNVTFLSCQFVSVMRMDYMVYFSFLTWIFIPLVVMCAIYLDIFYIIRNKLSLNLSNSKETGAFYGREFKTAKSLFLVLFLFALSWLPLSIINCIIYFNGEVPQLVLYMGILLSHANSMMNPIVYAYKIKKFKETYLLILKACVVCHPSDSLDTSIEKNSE
As to the kind of experiment: Displacement of [125I]AB-MECA from Adenosine A3 receptor expressed in CHO cells. In kind it is cell-based.

The target in the next test is Adenosine receptor A2a (Homo sapiens, UniProt P29274). As to the kind of experiment: Displacement of [3H]ZM-241385 from Adenosine A2A receptor expressed in HEK cells. In kind it is cell-based, HEK293. In general terms: In a radioligand displacement assay an active substance lowers the binding of a labelled ligand.
Another test concerns the target T2, Adenosine receptor A2b (Homo sapiens, UniProt P29275).
T2 sequence (P29275 whole entry): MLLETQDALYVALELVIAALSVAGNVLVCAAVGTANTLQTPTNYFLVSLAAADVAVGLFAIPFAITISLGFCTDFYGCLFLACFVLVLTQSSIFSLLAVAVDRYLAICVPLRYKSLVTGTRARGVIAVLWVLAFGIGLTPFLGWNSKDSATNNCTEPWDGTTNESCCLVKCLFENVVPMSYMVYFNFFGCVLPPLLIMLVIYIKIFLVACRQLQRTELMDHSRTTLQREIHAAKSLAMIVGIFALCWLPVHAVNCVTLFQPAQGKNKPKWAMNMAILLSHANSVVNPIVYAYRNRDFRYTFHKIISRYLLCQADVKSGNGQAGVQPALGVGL
Put plainly: Displacement of [3H]ZM-241385 from Adenosine A2B receptor expressed in HEK cells. Format: cell-based, HEK293.

Another test addresses T3, Adenosine receptor A1 (Homo sapiens, UniProt P30542).
T3 sequence (P30542 whole entry): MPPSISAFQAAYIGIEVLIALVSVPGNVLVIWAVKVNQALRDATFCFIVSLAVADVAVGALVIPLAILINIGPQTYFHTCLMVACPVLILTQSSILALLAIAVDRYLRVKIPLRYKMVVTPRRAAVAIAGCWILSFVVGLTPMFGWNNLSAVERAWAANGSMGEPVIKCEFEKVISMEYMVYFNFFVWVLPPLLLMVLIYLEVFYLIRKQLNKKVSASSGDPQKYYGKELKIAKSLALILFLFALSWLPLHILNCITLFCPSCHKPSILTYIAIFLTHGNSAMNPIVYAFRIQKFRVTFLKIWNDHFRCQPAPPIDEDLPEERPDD
Put plainly: Displacement of [3H]CPX from Adenosine A1 receptor expressed in CHO cells. In kind it is cell-based.

Structures are written as SMILES. Some results are limits rather than exact numbers.

Sequence of Adenosine receptor A2a (P29274 whole entry): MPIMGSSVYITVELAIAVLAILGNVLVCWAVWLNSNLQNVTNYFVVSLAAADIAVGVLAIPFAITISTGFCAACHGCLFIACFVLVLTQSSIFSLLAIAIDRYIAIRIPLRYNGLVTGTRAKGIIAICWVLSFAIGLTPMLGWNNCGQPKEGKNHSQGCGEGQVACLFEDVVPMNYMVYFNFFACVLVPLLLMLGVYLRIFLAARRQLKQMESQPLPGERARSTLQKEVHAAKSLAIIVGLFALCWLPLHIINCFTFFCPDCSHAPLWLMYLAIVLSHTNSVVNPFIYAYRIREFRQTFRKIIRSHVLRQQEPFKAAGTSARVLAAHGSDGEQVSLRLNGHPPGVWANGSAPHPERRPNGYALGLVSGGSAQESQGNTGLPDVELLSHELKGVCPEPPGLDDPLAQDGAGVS
Sequence of Adenosine A2 receptor (Homo sapiens) (P29274 whole entry, looked up, one chain of several): as the sequence (P29274 whole entry) above

As for `CCCn1c(=O)c2nc(-c3cnn(Cc4nc(-c5cccc(OC)c5)no4)c3)[nH]c2n(CCC)c1=O`, the Ratio Ki was 26 in test [1], 7 in test [2] and greater than 60 in test [3].
On to `CCCn1c(=O)c2nc(-c3cnn(Cc4nc(-c5ccc(C#N)cc5)no4)c3)[nH]c2n(CCC)c1=O`, for which the Ratio Ki in test [1] was 70; in test [2], 53; in test [3], greater than 277.
In the case of `CCCn1c(=O)c2[nH]c(-c3cnn(Cc4noc(-c5cccc(C(F)(F)F)c5)n4)c3)nc2n(CCC)c1=O`, the Ki – broadly, a dissociation constant, usually derived from enzyme kinetics or from competition with a known ligand – is 1800 nM at Adenosine receptor A3, greater than 5000 nM at Adenosine receptor A2a, 64 nM at Adenosine receptor A2b and greater than 6000 nM on Adenosine receptor A1.
As to `CCCn1c(=O)c2[nH]c(-c3cnn(Cc4nc(-c5ccc(C)cc5)no4)c3)nc2n(CCC)c1=O`, the inhibition constant Ki at Adenosine receptor A3 was determined as 8700 nM; at Adenosine receptor A2a, 3000 nM; on Adenosine receptor A2b, 54 nM; at Adenosine receptor A1 it was 2600 nM.
For `CCCn1c(=O)c2[nH]c(-c3cnn(Cc4nc(-c5ccc(C#N)cc5)no4)c3)nc2n(CCC)c1=O`, the inhibitory constant (Ki) on Adenosine receptor A3 is 950 nM; on Adenosine receptor A2a it was greater than 5000 nM; at Adenosine receptor A2b, 18 nM; at Adenosine receptor A1, 1300 nM.
The corresponding values for `CCCn1c(=O)c2[nH]c(-c3cnn(Cc4cc(-c5ccccc5OC)on4)c3)nc2n(CCC)c1=O` are 4900 nM, greater than 5000 nM, 195 nM and 3300 nM.
`CCCn1c(=O)c2[nH]c(-c3cnn(Cc4noc(-c5ccccc5Cl)n4)c3)nc2n(CCC)c1=O`: the Ki at Adenosine receptor A3 stood at 330 nM; on Adenosine receptor A2a, 2500 nM; on Adenosine receptor A2b it was 38 nM; on Adenosine receptor A1, 630 nM.
On the same counts, the results for `CCCn1c(=O)c2[nH]c(-c3cnn(Cc4cc(-c5ccc(C(F)(F)F)cc5)on4)c3)nc2n(CCC)c1=O` are 1200 nM, 1700 nM, 48 nM and 2300 nM.
With `CCCn1c(=O)c2nc(-c3cnn(Cc4noc(-c5cccc(C(F)(F)F)c5)n4)c3)[nH]c2n(CCC)c1=O`, the Ratio Ki in test [1] is greater than 93; in test [2] it was 27; in test [3], greater than 78.
With `CCCn1c(=O)c2nc(-c3cnn(Cc4nc(-c5ccccc5OC)no4)c3)[nH]c2n(CCC)c1=O`, the Ratio Ki is 23 in test [1], 5 in test [2] and 19 in test [3].
Turning to `CCCn1c(=O)c2nc(-c3cnn(Cc4cc(-c5ccc(OC)cc5)on4)c3)[nH]c2n(CCC)c1=O`, the Ratio Ki in test [1] is 31; in test [2], 48; in test [3] it was greater than 79.
On to `CCCn1c(=O)c2[nH]c(-c3cnn(Cc4noc(-c5ccccc5C(F)(F)F)n4)c3)nc2n(CCC)c1=O`, for which the Ki is 620 nM on Adenosine receptor A3, greater than 5000 nM on Adenosine receptor A2a, 100 nM on Adenosine receptor A2b and 1900 nM on Adenosine receptor A1.
Turning to `CCCn1c(=O)c2nc(-c3cnn(Cc4cc(-c5ccccc5OC)on4)c3)[nH]c2n(CCC)c1=O`, the Ratio Ki in test [1] is 16; in test [2], 24; in test [3] it was greater than 25.
The corresponding values for `CCCn1c(=O)c2nc(-c3cnn(Cc4nc(-c5ccc(C(F)(F)F)cc5)no4)c3)[nH]c2n(CCC)c1=O` are 60, 23 and greater than 90.
With `CCCn1c(=O)c2nc(-c3cnn(Cc4nc(-c5cccc(C)c5)no4)c3)[nH]c2n(CCC)c1=O`, the Ratio Ki in test [1] is 11; in test [2], 8; in test [3], greater than 39.
For `CCCn1c(=O)c2[nH]c(-c3cnn(Cc4nc(-c5cccc(Cl)c5)no4)c3)nc2n(CCC)c1=O`, the Ki at Adenosine receptor A3 is 490 nM; on Adenosine receptor A2a, greater than 5000 nM; on Adenosine receptor A2b it was 32 nM; at Adenosine receptor A1 it was 652 nM.
On to `CCCn1c(=O)c2nc(-c3cnn(Cc4noc(-c5cccc(OC)c5)n4)c3)[nH]c2n(CCC)c1=O`, for which the Ratio Ki in test [1] was 6; in test [2] it was 15; in test [3] it was greater than 37.
As for `CCCn1c(=O)c2[nH]c(-c3cnn(Cc4nc(-c5ccccc5OC)no4)c3)nc2n(CCC)c1=O`, the inhibition constant Ki was 410 nM at Adenosine receptor A3, 1600 nM on Adenosine receptor A2a, 82 nM on Adenosine receptor A2b and 1900 nM on Adenosine receptor A1.
For the compound `CCCn1c(=O)c2nc(-c3cnn(Cc4noc(-c5ccccc5Cl)n4)c3)[nH]c2n(CCC)c1=O`, the Ratio Ki in test [1] was found to be 16; in test [2], 9; in test [3], 65.
As for `CCCn1c(=O)c2[nH]c(-c3cnn(Cc4nc(-c5cccc(C)c5)no4)c3)nc2n(CCC)c1=O`, the inhibitory constant (Ki) at Adenosine receptor A3 was 970 nM; at Adenosine receptor A2a it was greater than 5000 nM; on Adenosine receptor A2b, 128 nM; at Adenosine receptor A1 it was 1400 nM.
For `CCCn1c(=O)c2[nH]c(-c3cnn(Cc4noc(-c5cccc(OC)c5)n4)c3)nc2n(CCC)c1=O`, the Ki is 2000 nM on Adenosine receptor A3, greater than 5000 nM at Adenosine receptor A2a, 136 nM on Adenosine receptor A2b and 810 nM on Adenosine receptor A1.
On the same counts, the results for `CCCn1c(=O)c2[nH]c(-c3cnn(Cc4nc(-c5ccc(C(F)(F)F)cc5)no4)c3)nc2n(CCC)c1=O` are 1300 nM, greater than 5000 nM, 55 nM and 3300 nM.
As to `CCCn1c(=O)c2[nH]c(-c3cnn(Cc4cc(-c5ccccc5Cl)on4)c3)nc2n(CCC)c1=O`, the Ki on Adenosine receptor A3 is 2300 nM; at Adenosine receptor A2a, 2700 nM; at Adenosine receptor A2b, 111 nM; on Adenosine receptor A1, greater than 6000 nM.
Regarding `CCCn1c(=O)c2nc(-c3cnn(Cc4noc(-c5ccccc5C(F)(F)F)n4)c3)[nH]c2n(CCC)c1=O`, the Ratio Ki in test [1] is 19; in test [2], 6; in test [3], greater than 50.
On the same counts, the results for `CCCn1c(=O)c2nc(-c3cnn(Cc4nc(-c5ccc(C)cc5)no4)c3)[nH]c2n(CCC)c1=O` are 48, 160 and 55.
Consider `CCCn1c(=O)c2nc(-c3cnn(Cc4cc(-c5ccc(Cl)cc5)on4)c3)[nH]c2n(CCC)c1=O`, for which the values for the Ratio Ki in test [1], in test [2] and in test [3] were 6, 40 and 14, respectively.
Consider `CCCn1c(=O)c2[nH]c(-c3cnn(CC(=O)Nc4ccccc4Cl)c3)nc2n(CCC)c1=O`, for which the inhibition constant Ki at Adenosine receptor A3 was 1200 nM; at Adenosine receptor A2a, 1500 nM; on Adenosine receptor A2b it was 22 nM; on Adenosine receptor A1, 102 nM.
As for `CCCn1c(=O)c2[nH]c(-c3cnn(Cc4cc(-c5ccc(Cl)cc5)on4)c3)nc2n(CCC)c1=O`, the Ki on Adenosine receptor A3 stood at 3300 nM; on Adenosine receptor A2a it was 1200 nM; on Adenosine receptor A2b, 82 nM; at Adenosine receptor A1 it was 540 nM.
Consider `CCCn1c(=O)c2nc(-c3cnn(CC(=O)Nc4ccccc4Cl)c3)[nH]c2n(CCC)c1=O`, for which the Ratio Ki in test [1] amounted to 5; in test [2] it was 54; in test [3], 68.
Take `CCCn1c(=O)c2[nH]c(-c3cnn(Cc4nc(-c5cccc(OC)c5)no4)c3)nc2n(CCC)c1=O`: the Ki on Adenosine receptor A3 is 600 nM; on Adenosine receptor A2a, greater than 5000 nM; at Adenosine receptor A2b, 82 nM; on Adenosine receptor A1 it was 2200 nM.
As to `CCCn1c(=O)c2[nH]c(-c3cnn(Cc4noc(-c5ccc(C#N)cc5)n4)c3)nc2n(CCC)c1=O`, the Ki at Adenosine receptor A3 is 640 nM; at Adenosine receptor A2a, greater than 5000 nM; at Adenosine receptor A2b, 14 nM; at Adenosine receptor A1, 570 nM.
For `CCCn1c(=O)c2nc(-c3cnn(Cc4noc(-c5ccc(C#N)cc5)n4)c3)[nH]c2n(CCC)c1=O`, the Ratio Ki in test [1] is 40; in test [2], 45; in test [3], greater than 357.
As for `CCCn1c(=O)c2nc(-c3cnn(Cc4nc(-c5cccc(Cl)c5)no4)c3)[nH]c2n(CCC)c1=O`, the Ratio Ki in test [1] is 20; in test [2], 15; in test [3], greater than 156.
In the case of `CCCn1c(=O)c2nc(-c3cnn(Cc4cc(-c5ccccc5Cl)on4)c3)[nH]c2n(CCC)c1=O`, the Ratio Ki in test [1] was greater than 54; in test [2] it was 20; in test [3] it was 24.
As to `CCCn1c(=O)c2nc(-c3cnn(Cc4cc(-c5ccc(C(F)(F)F)cc5)on4)c3)[nH]c2n(CCC)c1=O`, the Ratio Ki amounted to 48 in test [1], 25 in test [2] and 35 in test [3].

The values above are taken from ChEMBL document CHEMBL1147761, “Novel 1,3-dipropyl-8-(1-heteroarylmethyl-1H-pyrazol-4-yl)-xanthine derivatives as high affinity and selective A2B adenosine receptor antagonists” (Bioorg Med Chem Lett, 2006).
